According to US20100129800A1, “POLYMERS AND THEIR USE AS FLUORESCENT LABELS” (priority 2007, published 2010):
Read-outs that look alike come from different tables or passages of the source.

Key:
[1] = Fluorescence properties of the new compounds (excitation and emission wavelengths); format: physicochemical
[2] = tested on: c-myc promoter region G-quadruplex; details: 1 μM ligand, 24 hours, room temperature
Text: (§1) Compounds that bind nucleic acids may show preference for certain sequences. This preference can be used for the detection of specific nucleic acid sequences. One of the methods used to analyse the sequence specificity of DNA-binding compounds is the competition dialysis (c.f. Ren, J. et al., “Sequence and structural selectivity of nucleic acid binding ligands”, Biochemistry, 1999, vol. 38, pp […]). In this method different nucleic acid structures are dialyzed against a common compound solution. […] The amount of compound present in each DNA sequence is measured by fluorescence.
(§2) Furthermore, the inventors analyzed the binding properties of two dimers of the invention, Act-p-Act and Act-p-Qut, in front of several DNA sequences which are known in the state in the art to be biologically-relevant G-quadruplex structures: • 5′- […]-3′, (SEQ ID NO: 1 supra) as thrombin-binding aptamer: G-quadruplex; • 5′- […]-3′ (SEQ ID NO: 2) as a fragment of the promoter region of c-myc oncogen (c.f. Siddiqui-Jain A. et al., “Direct evidence for a G-quadruplex in a promoter region and its targeting with a small molecule to repress c-myc transcription”, Proc. Natl. Acad. Sci. USA, 2002, v. 99, p. […]
(§3) The concentration of the polymer (which is determined by fluorescence spectroscopy) indicates its specificity for a specific sequence: the more higher is the concentration, more specific is for said sequence.

[3] = tested on: human telomere G-quadruplex; details: 1 μM ligand, 24 hours, room temperature
Text: as §1, §2, §3

[4] = tested on: AT rich sequences; experiment: Competitive dialysis; format: binding
Text: as §1
(§4) We analysed the sequence specificity of the following polymers of the invention: Aca-p-Aca, QgpQgp(npa), Act-(p-Act)5, Act-p-Qut-p-Agt, Act-p-Qut-p-Act, Act-p-Qut-p-Nct, Qut-p-Qut-p-Qut, Act-p-Qut-p-Qut, and Act-p-Act-p-Act for DNA sequences: • duplex with an alternating CG sequence (5′-CGCGCG-T4-CGCGCG-3′); • duplex with a contiguous CG sequence (5′- CCCGGG-T4-CCCGGG-3′); • duplex with an alternating AT sequence (5′-[…]-T4-[…]); • duplex with a contiguous AT sequence (5′-[…]-T4-[…]); • a parallel triplex (5′-T20-3′-3′-T20-5′+A20); and • a G-quadruplex (thrombin-binding aptamer: 5′-[…]-3′ (SEQ ID NO 1); (c.f. Bock, L. C. et al., “Selection of single-stranded DNA molecules that bind and inhibit human thrombin”, Nature, 1992, vol. 355, pp 564-566).
(§5) Said DNA sequences have been used in order to determine: 1) the affinity of each one of the polymers for a specific tandem of nucleotides (CG, AT, GT); and 2) if the affinity for a specific tandem of nucleotides is affected by its distribution into the sequence (i.e., if the tandem is alternated or contiguous in the sequence).
(§6) The competition dialysis assay was performed placing into a beaker 200 ml of dialysate solution containing 1 μM of ligand in 2 mM sodium phosphate, 2 mM EDTA and 0.185 M NaCl pH 7.0. A volume of 0.1 ml (at 1 mg/ml) of each DNA samples was pipeted into a separate 0.1 ml dialysis unit (Mini Slide-A-lyzer 3.5K, Pierce). The dialysis units were placed in the beaker containing the dialysate solution using a floating device. The contents were allowed to equilibrate with continuous stirring for 24 hours at room temperature. At the end of the equilibration period, DNA samples were carefully removed to eppendorf tubes and were taken to a final concentration of 1% (w/v) sodium dodecyl sulfate (SDS). The concentration of polymer within each dialysis unit was then determined by fluorescence spectroscopy. The free polymer concentration was determined using an aliquot of the dialysate solution as well as with the solution coming from a blank (without DNA) dialysis unit.
as §3

[5] = tested on: duplex with a contiguous CG sequence (5′- CCCGGG-T4-CCCGGG-3′); experiment: Competitive dialysis; format: binding
Text: as §1, §4, §5, §6, §3

[6] = tested on: parallel triplex (5′-T20-3′-3′-T20-5′+A20); experiment: Competitive dialysis; format: binding
Text: as §1, §4, §5, §6, §3

[7] = tested on: G-quadruplex (thrombin-binding aptamer: 5′-GGTTGGTGTGGTTGG-3′); details: 1 μM ligand, 24 hours, room temperature
Text: as §1
(§7) We analysed the sequence specificity of the following polymers of the invention: Aca-p-Aca, QgpQgp(npa), Act-(p-Act)5, Act-p-Qut-p-Agt, Act-p-Qut-p-Act, Act-p-Qut-p-Nct, Qut-p-Qut-p-Qut, Act-p-Qut-p-Qut, and Act-p-Act-p-Act for DNA sequences: • duplex with an alternating CG sequence (5′-CGCGCG-T4-CGCGCG-3′); • duplex with a contiguous CG sequence (5′- CCCGGG-T4-CCCGGG-3′); • duplex with an alternating AT sequence (5′-[…]-T4-[…]); • duplex with a contiguous AT sequence (5′-[…]-T4-[…]); • a parallel triplex (5′-T20-3′-3′-T20-5′+A20); and • a G-quadruplex (thrombin-binding aptamer: 5′-[…]-3′ (SEQ ID NO 1); (c.f. Bock, L. C. et al., “Selection of single-stranded DNA molecules that bind and inhibit human thrombin”, Nature, 1992, vol. 355, pp 564-566). […]

[8] = tested on: duplex with a contiguous AT sequence (5′-AAAATTTT-T4-AAAATTTT); details: 1 μM ligand, 24 hours, room temperature
Text: as §1, §7

[9] = 1 μM ligand, 24 hours, room temperature

Row | Fluorescence Excitation (nm) ([1]; free compound) | Fluorescence emission (nm) ([1]; free compound) | SMILES | affinity (concentration of polymer retained, by fluorescence) [4, 9] | affinity (concentration of polymer retained, by fluorescence) [5, 9] | affinity (concentration of polymer retained, by fluorescence) [6, 9] | other results
1 | 358 nm | 438 nm | CC(O)C(COP(=O)(O)OC(C)C(CO)NC(=O)c1c2ccccc2nc2ccccc12)NC(=O)c1c2ccccc2nc2c1[nH]c1ccccc12 (centres unmarked) [Example 27, O-{2-N-(Acridine-9-carbamoyl)-(1-hydroxybut-3-yl)} and O-{2-N-(10H-indolo[3,2-d]quinoline-11-carbamoyl)-3-hydroxybut-1-yl) phosphate] |  |  |  | affinity (concentration of polymer retained, by fluorescence) [2]: very high affinity; affinity (concentration of polymer retained, by fluorescence) [3]: very high affinity
2 | 353 nm | 440 nm | CC(O)C(COP(=O)(O)OC(C)C(COP(=O)(O)OC(C)C(CO)NC(=O)c1c2ccccc2nc2ccccc12)NC(=O)c1c2ccccc2nc2c1[nH]c1ccccc12)NC(=O)c1c2ccccc2nc2c1[nH]c1ccccc12 (centres unmarked) [Example 29, O-{2-N-(Acridine-9-carbamoyl)-(1-hydroxybut-3-yl)} phosphate (3-1) O-{2-N-(10H-indolo[3,2-d]quinoline-11-carbamoyl)-3-oxybut-1-yl} phosphate (3-1) O-(2-N-{10H-indolo[3,2-d]quinoline-11-carbamoyl}-3-hydroxybut-1-yl)] | higher affinity | higher affinity | higher affinity | 
3 | 350 nm | 438 nm | CC(O)C(COP(=O)(O)OC(C)C(COP(=O)(O)OC(C)C(COP(=O)(O)OC(C)C(COP(=O)(O)OC(C)C(COP(=O)(O)OC(C)C(CO)NC(=O)c1c2ccccc2nc2ccccc12)NC(=O)c1c2ccccc2nc2ccccc12)NC(=O)c1c2ccccc2nc2ccccc12)NC(=O)c1c2ccccc2nc2ccccc12)NC(=O)c1c2ccccc2nc2ccccc12)NC(=O)c1c2ccccc2nc2ccccc12 (centres unmarked) [Example 30, O-{2-N-(Acridine-9-carbamoyl)-(1-hydroxybut-3-yl)} phosphate (3-1) O-{2-N-(acridine-9-carbamoyl)-(1-hydroxybut-3-yl)} phosphate (3-1) O-{2-N-(acridine-9-carbamoyl)-(1-hydroxybut-3-yl)} phosphate (3-1) O-{2-N-(acridine-9-carbamoyl)-(1-hydroxybut-3-yl)} phosphate (3-1) O-{2-N-(acridine-9-carbamoyl)-(1-hydroxybut-3-yl)} phosphate (3-1) O-{2-N-(acridine-9-carbamoyl)-3-hydroxybut-1-yl}] |  |  | high affinity | 
4 | 359 nm | 499 nm | CC(O)C(COP(=O)(O)OC(C)C(COP(=O)(O)OC(C)C(CO)NC(=O)c1c2ccccc2nc2c1[nH]c1ccccc12)NC(=O)c1c2ccccc2nc2c1[nH]c1ccccc12)NC(=O)c1c2ccccc2nc2c1[nH]c1ccccc12 (centres unmarked) [Example 42, O-{2-N-(10H-indolo[3,2-d]quinoline-11-carbamoyl)-3-oxybut-1-yl} phosphate (3-1) O-{2-N-(10H-indolo[3,2-d]quinoline-11-carbamoyl)-3-oxybut-1-yl} phosphate (3-1) O-(2-N-{10H-indolo[3,2-d]quinoline-11-carbamoyl}-3-hydroxybut-1-yl)] | higher affinity | higher affinity | higher affinity | 
5 |  |  | CC(O)C(COP(=O)(O)OC(C)C(COP(=O)(O)OC(C)C(CO)NC(=O)c1c2ccccc2nc2ccccc12)NC(=O)c1c2ccccc2nc2c1[nH]c1ccccc12)NC(=O)c1c2ccccc2nc2ccccc12 (centres unmarked) [Example 44, O-{2-N-(Acridine-9-carbamoyl)-(1-hydroxybut-3-yl)} phosphate (3-1) O-{2-N-(10H-indolo[3,2-d]quinoline-11-carbamoyl)-3-oxybut-1-yl} phosphate (3-1) O-{2-N-(acridine-9-carbamoyl)-(3-hydroxybut-1-yl)}] |  |  |  | Fluorescence Excitation (nm) [1]: 359 nm; Fluorescence emission (nm) [1]: 438 nm; affinity (concentration of polymer retained, by fluorescence) [4]: higher affinity; affinity (concentration of polymer retained, by fluorescence) [5]: higher affinity; affinity (concentration of polymer retained, by fluorescence) [6]: higher affinity
6 | 349 nm | 495 nm | CC(=O)NCCN(CC(=O)NCCN(CC(=O)NCCCCCCO)C(=O)CNC(=O)c1c2ccccc2nc2c1[nH]c1ccccc12)C(=O)CNC(=O)c1c2ccccc2nc2c1[nH]c1ccccc12 [Example 48] |  |  |  | affinity (concentration of polymer retained, by fluorescence) [7]: high affinity; affinity (concentration of polymer retained, by fluorescence) [8]: high affinity
